Reference: article PMC11387175, “Model informed dose regimen optimizing in development of leritrelvir for the treatment of mild or moderate COVID-19” (Frontiers in Pharmacology, 2024)

Key:
Omicron variant = assay: Target concentration needed to achieve EC90; format: cell-based, SARS-CoV-2
[1] = system: Omicron XBB.1.9.1 variant; design: method as in Chen et al., 2024; settings: ref Chen et al., 2024, read-out: concentration for 90% of maximal effect (EC90); cited from earlier work

SMILES: O=C(NC1CCCC1)C(=O)[C@H](C[C@@H]1CCNC1=O)NC(=O)[C@@H]1[C@H]2CCC[C@H]2CN1C(=O)[C@@H](NC(=O)C(F)(F)F)C1CCCCC1 [leritrelvir]
- concentration needed to achieve EC90 (Omicron variant): 0.2097 µg/mL
- EC90 [1]: 415 nM
